≈ marks a conversion by molar mass, not a printed value. Read-outs that look alike come from different tables or passages of the source.
Assays:
[1] = tested on: Mycobacterium tuberculosis strain H37Rv; test: microplate alamar blue assay (MABA) MIC; assay type: cell-based; conditions: M. tuberculosis H37Rv, BACTEC 12B medium, MIC90 = 90% reduction in fluorescence relative to controls
Experimental: Screening was done to get MIC for M. tuberculosis using both the microplate alamar blue assay (MABA) and low-oxygen recovery assay (LORA).
The initial screen was conducted against Mycobacterium tuberculosis strain H37Rv (American Type Culture Collection number 27294) in BACTEC 12B medium (Becton-Dickinson) using the MABA. Compounds were tested in ten 2-fold dilutions, typically from 100 μg/mL to 0.19 μg/mL. The MIC90 is defined as the concentration effecting a reduction in fluorescence of 90% relative to controls. This value is determined from the dose-response curve using a curve-fitting program. Any MIC90 value of ≦10 μg/mL was considered “active” for antitubercular activity. 3(h) Method for Determining IC50

[2] = tested on: VERO cells; test: cells; assay type: cell-based, African green monkey (Cercopithecus aethiops); conditions: Chlorocebus sabaeus

C[C@]1(COc2ccccc2)Cn2cc([N+](=O)[O-])nc2O1 [Example 1, (R)-2-Methyl-6-nitro-2-(phenoxymethyl)-2,3-dihydroimidazo[2,1-b]oxazole]
MIC [1]: 1.33 µg/mL (≈ 4.83 µM) | IC50 ([2]; Vero, 72 h): > 50 µg/mL

C[C@]1(COc2ccc(I)cc2)Cn2cc([N+](=O)[O-])nc2O1 [Example 2, (R)-2-((4-Iodophenoxy)methyl)-2-methyl-6-nitro-2,3-dihydroimidazo[2,1-b]oxazole]
MIC [1]: < 0.195 µg/mL | IC50 ([2]; VERO cell cytotoxicity, 72 hours exposure, ATP viability readout, read-out: IC50): > 50 µg/mL
